From article PMC12406685, “Thiazole substitution of a labile amide bond—a new option toward antiplasmodial pantothenamide-mimics” (Antimicrobial Agents and Chemotherapy, 2025)

Test system: PfPanK
Assay: not given
Set-up: method as in PMID 29614109, PMID 11278793, PMID 24333332
Settings: mean ± SEM; read-out: Km for pantothenate of PfPanK in parasite lysates; cited from earlier work
In the case of `CC(C)(CO)[C@@H](O)C(=O)NCCC(=O)O` [D-Pantothenate], the Km is given as 270 ± 95 nM.

Test system: human foreskin fibroblasts (HFF)
Assay: In vitro HFF proliferation assay (Incucyte confluency)
Type: cell-based
Settings: 10 µM
Experimental: (§1) HFF cells were maintained in vitro in DMEM supplemented with 10% (vol/vol) newborn calf serum, 50 units/mL penicillin, 50 µg/mL streptomycin, 10 µg/mL gentamicin, 0.2 mM L-glutamine, and 0.25 µg/mL amphotericin B, as previously described ([99]). HepG2 cells were maintained in RPMI-1640 medium (Thermo Fisher Scientific, catalogue number 72400120) supplemented with 10% (vol/vol) fetal bovine serum, 50 units/mL penicillin, and 50 µg/mL streptomycin.
In vitro HFF proliferation assays were performed as previously described by Howieson et al. ([32]), with modifications. Confluent HFF cells (in a 75 cm^2 flask) were harvested by treatment with 1 × trypsin–EDTA (0.25% [wt/vol] trypsin +0.2 g/L EDTA) and diluted in 21 mL of DMEM supplemented with 10% [vol/vol] newborn calf serum ([32]). Assays were set up in 96-well microtiter plates in a similar way to that described for the antiplasmodial activity assay. Cycloheximide (10 µM) was used as a non-proliferation control, and 0.1% (vol/vol) DMSO served as a 100% proliferation control. The plates were incubated at 37°C in a CO2 incubator for 96 h, and the Incucyte Live-Cell Analysis System (Essen BioScience) was used to capture cellular changes and assess cell growth in each well over time. Each well was scanned to capture bright field images, and confluency was assessed at the end of the 96 h incubation, which was then used to evaluate the effect of each compound on the proliferation of HFF cells by comparing it to the 100% proliferation control. The bottom of the curve was constrained to 0 when fitting for HFF proliferation assays using GraphPad Prism.
For `C[C@@H]1C[C@@H]([C@H](O)CC2CC(=O)NC(=O)C2)C(=O)[C@@H](C)C1` [Cycloheximide, reference compound], the “Effect on proliferation of HFF cells (positive control)” value was “completely inhibited the proliferation”.

Test system: intraerythrocytic P. falciparum
Assay: not given
Settings: absence of pantetheinases; read-out: IC50 in the absence of pantetheinases; cited from earlier work
For `CCCCCNC(=O)CCNC(=O)[C@H](O)C(C)(C)CO` [Compound N5-Pan], the IC50 is listed as 2000 ± 500 nM.

Same assay, conditions: in the presence of pantetheinases; read-out: IC50 against intraerythrocytic P. falciparum; cited from earlier work
For `CCCCCc1cc(CNC(=O)[C@H](O)C(C)(C)CO)no1` [iii], the IC50 is given as 72 ± 3 nM. In the case of `CCCCCCc1cc(CNC(=O)[C@H](O)C(C)(C)CO)no1` [iv], the IC50 is given as 160 ± 10 nM. For `CCCCCn1cc(CNC(=O)[C@H](O)C(C)(C)CO)nn1` [compound i], the IC50 is listed as 56 ± 5 nM. For `CCCCCc1nnc(CNC(=O)[C@H](O)C(C)(C)CO)s1` [compound v], the IC50 is given as 960 ± 50 nM. For `CCCCCCn1cc(CNC(=O)[C@H](O)C(C)(C)CO)nn1` [ii], the IC50 is given as 55 ± 5 nM.

Same assay, conditions: presence of pantetheinases; read-out: IC50 in the presence of pantetheinases; cited from earlier work
For `CCCCCNC(=O)CCNC(=O)[C@H](O)C(C)(C)CO` [Compound N5-Pan], the IC50 is listed as 124000 ± 15000 nM.

Test system: intraerythrocytic P. falciparum
Assay: In vitro parasite proliferation assay (SYBR Safe-based fluorescence)
Type: cell-based, Plasmodium falciparum (3D7 strain)
Settings: Plasmodium falciparum; intraerythrocytic stage, RPMI-1640 containing 1 µM pantothenate, 96 h; mean ± SEM of three experiments; read-out: IC50 (µM) against Pf at 1 µM Pan
Experimental: Culturing of intraerythrocytic stage P. falciparum parasites (3D7 strain) was carried out using a method adapted from Trager and Jensen ([97]) and Allen and Kirk ([98]). Parasites were maintained within human, male or female, erythrocytes (typically Group O+, Rh+, 4% hematocrit) in RPMI-1640 medium (Thermo Fisher Scientific, catalogue number 72400120) supplemented with 25 mM HEPES, 11 mM glucose, 200 μM hypoxanthine, 24 μg/mL gentamicin and 6 g/L Albumax II on a horizontally rotating shaking incubator (New Brunswick Innova 42/[…]) at 37°C under an atmosphere of 96% nitrogen, 3% carbon dioxide, and 1% oxygen. To evaluate the effect of each compound on the in vitro proliferation of P. falciparum parasites, a SYBR Safe-based fluorescence assay was used as previously described ([32]). All pantothenamide-mimics tested were initially dissolved to a concentration of 200 mM in DMSO. The final DMSO concentration in the assay never exceeded 0.1% (vol/vol). Assays were performed using the same medium used to culture the parasites. […] Assays were set up with synchronous ring-stage P. falciparum-infected erythrocytes in 96-well microtiter plates. Parasites were synchronized using 5% (wt/vol) sorbitol ([100]). […] P. falciparum-infected erythrocytes incubated in the presence of 0.5 μM chloroquine were used as a non-proliferation control, and those incubated in the absence of compounds and chloroquine served as a 100% parasite proliferation control. To minimize “edge effects” ([101], [102]), the outermost rows and columns of the microtiter plates were not used in the proliferation assays and were filled with 200 μL of medium. The plates were then incubated at 37°C for 96 h under a low-oxygen atmosphere. At the end of the incubation, plates were frozen at -80°C to lyse the cells. […] The fluorescence in the non-proliferation control wells was subtracted from the fluorescence readings in the other wells prior to further analysis. Parasite proliferation, calculated as a percentage of the fluorescence measured in the test wells relative to the fluorescence measured in the 100% parasite proliferation control wells, was then plotted against the logarithm of the compound concentration. […] IC50 values (determined from the sigmoidal curves) were averaged from three independent experiments.
With `CC(C)(CO)[C@@H](O)C(=O)NCc1csc(-c2cccc(C(F)(F)F)c2)n1` [Compound 2h] the IC50 was 21 ± 1 µM. In the case of `CC(C)CCc1csc(CNC(=O)[C@H](O)C(C)(C)CO)n1` [Compound 1b], the IC50 is reported as 2.9 ± 0.2 µM. `CC(C)(CO)[C@@H](O)C(=O)NCc1csc(Cc2ccc3ccccc3c2)n1` [Compound 2d] gave an IC50 of 6.5 ± 0.1 µM. Work on `CC(C)(CO)[C@@H](O)C(=O)NCc1cnc(-c2cccc(C(F)(F)F)c2)s1` [Compound 3j] yielded an IC50 of 11 ± 1 µM. Molecule `CCCCCCc1ncc(CNC(=O)[C@H](O)C(C)(C)CO)s1` [Compound 3c] has an IC50 of 35 ± 2 µM. Work on `CC(C)(CO)[C@@H](O)C(=O)NCc1cnc(-c2ccc(C(F)(F)F)cc2)s1` [Compound 3i] yielded an IC50 of 46 ± 6 µM. Molecule `CC(C)(CO)[C@@H](O)C(=O)NCc1cnc(-c2ccc(F)cc2)s1` [Compound 3g] has an IC50 of 14 ± 2 µM. In the case of `CC(C)(CO)[C@@H](O)C(=O)NCc1cnc(Cc2ccccc2)s1` [Compound 3d], the IC50 is reported as 16 ± 1 µM. In the case of `CCCCCCc1csc(CNC(=O)[C@H](O)C(C)(C)CO)n1` [Compound 1d], the IC50 is reported as 4.3 ± 0.4 µM. `CC(C)(CO)[C@@H](O)C(=O)NCc1cnc(CCc2ccccc2)s1` [Compound 3e] gave an IC50 of 44 ± 1 µM. For `CCCCCc1ncc(CNC(=O)[C@H](O)C(C)(C)CO)s1` [Compound 3b], the IC50 was 12 ± 1 µM. Molecule `CCCCCc1nc(CNC(=O)[C@H](O)C(C)(C)CO)cs1` [Compound 2a] has an IC50 of 5.6 ± 0.2 µM. With `CC(C)(CO)[C@@H](O)C(=O)NCc1cnc(-c2ccc(Cl)cc2)s1` [Compound 3h] the IC50 was 44 ± 4 µM. Molecule `CCCCc1ncc(CNC(=O)[C@H](O)C(C)(C)CO)s1` [Compound 3a] has an IC50 of 11 ± 1 µM. Molecule `CCCCCCc1nc(CNC(=O)[C@H](O)C(C)(C)CO)cs1` [Compound 2b] has an IC50 of 5.2 ± 0.6 µM. `CC(C)(CO)[C@@H](O)C(=O)NCc1csc(-c2ccc(Cl)cc2)n1` [Compound 2f] gave an IC50 of 3.1 ± 0.3 µM. Molecule `CC(C)(CO)[C@@H](O)C(=O)NCc1csc(-c2ccc(C(F)(F)F)cc2)n1` [Compound 2g] has an IC50 of 57 ± 2 µM.

Test system: human hepatoblastoma cells (HepG2)
Assay: In vitro HepG2 proliferation assay (Incucyte confluency)
Type: cell-based
Settings: 10 µM
Experimental: as §1
In vitro HepG2 proliferation assays were performed similarly to the HFF proliferation assays with modifications. Confluent HepG2 cells were harvested by treatment with 1 × trypsin–EDTA and diluted in RPMI-1640 supplemented with 10% (vol/vol) fetal bovine serum. Assays were set up in 96-well microtiter plates with 20,000 cells per well. Puromycin (10 µM) was used as a non-proliferation control, and 0.1% (vol/vol) DMSO served as a 100% proliferation control. The plates were incubated at 37°C in a CO2 incubator for 72 h, and the Incucyte Live-Cell Analysis System (Essen BioScience) was used to capture cellular changes and assess cell growth in each well over time as described above for the HFF proliferation assays. The bottom of the curve was constrained to 0 when fitting for HepG2 proliferation assays using GraphPad Prism.
With `COc1ccc(C[C@H](N)C(=O)N[C@H]2[C@@H](O)[C@H](n3cnc4c(N(C)C)ncnc43)O[C@@H]2CO)cc1` [puromycin, reference compound] the “Effect on proliferation of HepG2 cells (positive control)” value was “completely inhibited”.

Molecular target: T1, HsPanK3 (Homo sapiens, UniProt Q9H999)
T1 sequence (Q9H999 12-368): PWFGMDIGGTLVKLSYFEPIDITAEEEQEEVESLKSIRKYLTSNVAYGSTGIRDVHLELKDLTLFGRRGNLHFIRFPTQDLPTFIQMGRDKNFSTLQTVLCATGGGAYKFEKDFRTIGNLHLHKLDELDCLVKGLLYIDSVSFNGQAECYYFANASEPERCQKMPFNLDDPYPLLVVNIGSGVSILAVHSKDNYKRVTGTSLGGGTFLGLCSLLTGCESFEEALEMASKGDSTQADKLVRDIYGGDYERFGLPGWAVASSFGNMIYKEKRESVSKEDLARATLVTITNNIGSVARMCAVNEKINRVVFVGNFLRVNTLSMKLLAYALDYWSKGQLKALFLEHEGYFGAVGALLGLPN
Assay: not given
Settings: read-out: Km for pantothenate of HsPanK3, previous reports; cited from earlier work
For `CC(C)(CO)[C@@H](O)C(=O)NCCC(=O)O` [D-Pantothenate], the Km is given as 17 ± 1 µM.
